Laboratory results from ChEMBL document CHEMBL4311955, “HIV-1 Protease Inhibitors Incorporating Stereochemically Defined P2' Ligands To Optimize Hydrogen Bonding in the Substrate Envelope” (J Med Chem, 2019).

Columns and labels:
[1] = system: Human immunodeficiency virus 1; test: Antiviral activity against multidrug-resistant HIV1 NL4-3 VSL20 infected in human TZM-bl cells preincubated for 18 hrs followed by viral infection and measured after 48 hrs by luciferase reporter gene assay; format: functional, organism-based; details: Human immunodeficiency virus 1, NL4-3 VSL20, TZM-bl
[2] = system: Human immunodeficiency virus 1; test: Antiviral activity against wild-type HIV1 NL4-3 infected in human TZM-bl cells preincubated for 18 hrs followed by viral infection and measured after 48 hrs by luciferase reporter gene assay; format: functional, organism-based; details: Human immunodeficiency virus 1, NL4-3, TZM-bl
[3] = system: Human immunodeficiency virus 1; test: Antiviral activity against multidrug-resistant HIV1 NL4-3 SLK19 infected in human TZM-bl cells preincubated for 18 hrs followed by viral infection and measured after 48 hrs by luciferase reporter gene assay; format: functional, organism-based; details: Human immunodeficiency virus 1, NL4-3 SLK19, TZM-bl
[4] = system: Human immunodeficiency virus 1; test: Antiviral activity against multidrug-resistant HIV1 NL4-3 KY24 infected in human TZM-bl cells preincubated for 18 hrs followed by viral infection and measured after 48 hrs by luciferase reporter gene assay; format: functional, organism-based; details: Human immunodeficiency virus 1, NL4-3 KY24, TZM-bl
Protease [5] = biological target: Protease (Human immunodeficiency virus 1, UniProt Q9YQ12, A71V/I50V); test: Inhibition of HIV1 NL4-3 protease I50V/A71V mutant expressed in Escherichia coli TAP-106 cells using EDANS/DABCYL-labelled 10-amino acid containing natural MA/CA cleavage site as substrate preincubated for 1 hr followed by substrate addition and measured for 60 mins by FRET assay
Chain of Protease (Human immunodeficiency virus 1, UniProt Q9YQ12, A71V/I50V) (Q9YQ12 entry or part of it A71V/I50V): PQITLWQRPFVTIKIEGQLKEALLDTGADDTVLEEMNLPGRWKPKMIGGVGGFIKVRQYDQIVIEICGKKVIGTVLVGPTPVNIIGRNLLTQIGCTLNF

Protease [6] = biological target: Protease (Human immunodeficiency virus 1, UniProt Q9YQ12, I84V); test: Inhibition of HIV1 NL4-3 protease I84V mutant expressed in Escherichia coli TAP-106 cells using EDANS/DABCYL-labelled 10-amino acid containing natural MA/CA cleavage site as substrate preincubated for 1 hr followed by substrate addition and measured for 60 mins by FRET assay
Chain of Protease (Human immunodeficiency virus 1, UniProt Q9YQ12, I84V) (Q9YQ12 entry or part of it I84V): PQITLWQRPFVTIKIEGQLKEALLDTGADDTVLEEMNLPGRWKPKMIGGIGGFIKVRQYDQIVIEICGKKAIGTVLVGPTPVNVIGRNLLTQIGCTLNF

[7] = Selectivity ratio of EC50 for antiviral activity against multidrug-resistant HIV1 NL4-3 KY24 infected in human TZM-bl cells to EC50 for antiviral activity against wild-type HIV1 NL4-3 infected in human TZM-bl cells; format: functional
[8] = Selectivity ratio of EC50 for antiviral activity against multidrug-resistant HIV1 NL4-3 VSL20 infected in human TZM-bl cells to EC50 for antiviral activity against wild-type HIV1 NL4-3 infected in human TZM-bl cells; format: functional
[9] = Selectivity ratio of EC50 for antiviral activity against multidrug-resistant HIV1 NL4-3 SLK19 infected in human TZM-bl cells to EC50 for antiviral activity against wild-type HIV1 NL4-3 infected in human TZM-bl cells; format: functional
[10] = system: Human immunodeficiency virus 1; test: Potency index, ratio of darunavir EC50 to test compound EC50 for antiviral activity against multidrug-resistant HIV1 NL4-3 KY24 infected in human TZM-bl cells; format: functional

SMILES	EC50 [1]	EC50 [2]	EC50 [3]	EC50 [4]	Ki (Protease [5])	Ki (Protease [6])	Ratio EC50 [7]	Ratio EC50 [8]	Ratio EC50 [9]	Ratio EC50 [10]
CC(C)CN(C[C@@H](O)[C@H](Cc1ccccc1)NC(=O)O[C@H]1CO[C@H]2OCC[C@H]21)S(=O)(=O)c1ccc([C@H](C)O)cc1	117 nM	4.7 nM	31 nM	352 nM	–	–	–	–	–	–
CC(C)CN(C[C@@H](O)[C@H](Cc1ccccc1)NC(=O)O[C@H]1CO[C@H]2OCC[C@H]21)S(=O)(=O)c1ccc([C@@H](O)CO)cc1	–	176 nM	–	–	0.09 nM	0.098 nM	–	–	–	–
CCC(CC)CN(C[C@@H](O)[C@H](Cc1ccccc1)NC(=O)O[C@H]1CO[C@H]2OCC[C@H]21)S(=O)(=O)c1ccc([C@@H](C)O)cc1	420 nM	5.1 nM	32 nM	345 nM	–	–	–	–	–	–
CCC(CC)CN(C[C@@H](O)[C@H](Cc1ccccc1)NC(=O)O[C@H]1CO[C@H]2OCC[C@H]21)S(=O)(=O)c1ccc([C@H](O)CO)cc1	417 nM	41 nM	151 nM	1150 nM	0.22 nM	0.134 nM	28	10	4	–
CC(C)CN(C[C@@H](O)[C@H](Cc1ccccc1)NC(=O)O[C@H]1CO[C@H]2OCC[C@H]21)S(=O)(=O)c1ccc([C@@H](C)O)cc1	148 nM	7.5 nM	100 nM	360 nM	–	–	–	–	–	–
CC[C@H](C)CN(C[C@@H](O)[C@H](Cc1ccccc1)NC(=O)O[C@H]1CO[C@H]2OCC[C@H]21)S(=O)(=O)c1ccc([C@@H](C)O)cc1	291 nM	4.2 nM	91 nM	342 nM	0.132 nM	0.095 nM	81	69	22	–
CCC(CC)CN(C[C@@H](O)[C@H](Cc1ccccc1)NC(=O)O[C@H]1CO[C@H]2OCC[C@H]21)S(=O)(=O)c1ccc([C@H](C)O)cc1	112 nM	4.4 nM	26 nM	196 nM	–	–	–	–	–	–
CC[C@H](C)CN(C[C@@H](O)[C@H](Cc1ccccc1)NC(=O)O[C@H]1CO[C@H]2OCC[C@H]21)S(=O)(=O)c1ccc([C@H](O)CO)cc1	–	92 nM	–	–	–	0.504 nM	–	–	–	–
CCC(CC)CN(C[C@@H](O)[C@H](Cc1ccccc1)NC(=O)O[C@H]1CO[C@H]2OCC[C@H]21)S(=O)(=O)c1ccc([C@@H](O)CO)cc1	100 nM	40 nM	116 nM	507 nM	0.074 nM	0.057 nM	13	3	3	–
CC[C@H](C)CN(C[C@@H](O)[C@H](Cc1ccccc1)NC(=O)O[C@H]1CO[C@H]2OCC[C@H]21)S(=O)(=O)c1ccc([C@H](C)O)cc1	281 nM	4.6 nM	49 nM	490 nM	0.093 nM	0.111 nM	107	61	11	–
CC(C)CN(C[C@@H](O)[C@H](Cc1ccccc1)NC(=O)O[C@H]1CO[C@H]2OCC[C@H]21)S(=O)(=O)c1ccc([C@H](O)CO)cc1	–	189 nM	–	–	–	0.283 nM	–	–	–	–
CC[C@H](C)CN(C[C@@H](O)[C@H](Cc1ccccc1)NC(=O)O[C@H]1CO[C@H]2OCC[C@H]21)S(=O)(=O)c1ccc([C@@H](O)CO)cc1	–	80 nM	–	–	–	0.216 nM	–	–	–	–
CCC(CC)CN(C[C@@H](O)[C@H](Cc1ccccc1)NC(=O)O[C@H]1CO[C@H]2OCC[C@H]21)S(=O)(=O)c1ccc(CO)cc1	426 nM	4.2 nM	36 nM	495 nM	0.055 nM	0.005 nM	118	101	9	2
CC[C@H](C)CN(C[C@@H](O)[C@H](Cc1ccccc1)NC(=O)O[C@H]1CO[C@H]2OCC[C@H]21)S(=O)(=O)c1ccc(CO)cc1	310 nM	5.7 nM	52 nM	1090 nM	0.08 nM	0.01 nM	191	54	9	–
